The values below come from patent US20230167073A1 (Teijin Pharma Limited, priority 2020, published 2023).

The test concerns the target T1, Human TRPC6 (Homo sapiens, UniProt Q9Y210).
T1 construct: expressed in transfected cells
T1 sequence (Q9Y210 1-931): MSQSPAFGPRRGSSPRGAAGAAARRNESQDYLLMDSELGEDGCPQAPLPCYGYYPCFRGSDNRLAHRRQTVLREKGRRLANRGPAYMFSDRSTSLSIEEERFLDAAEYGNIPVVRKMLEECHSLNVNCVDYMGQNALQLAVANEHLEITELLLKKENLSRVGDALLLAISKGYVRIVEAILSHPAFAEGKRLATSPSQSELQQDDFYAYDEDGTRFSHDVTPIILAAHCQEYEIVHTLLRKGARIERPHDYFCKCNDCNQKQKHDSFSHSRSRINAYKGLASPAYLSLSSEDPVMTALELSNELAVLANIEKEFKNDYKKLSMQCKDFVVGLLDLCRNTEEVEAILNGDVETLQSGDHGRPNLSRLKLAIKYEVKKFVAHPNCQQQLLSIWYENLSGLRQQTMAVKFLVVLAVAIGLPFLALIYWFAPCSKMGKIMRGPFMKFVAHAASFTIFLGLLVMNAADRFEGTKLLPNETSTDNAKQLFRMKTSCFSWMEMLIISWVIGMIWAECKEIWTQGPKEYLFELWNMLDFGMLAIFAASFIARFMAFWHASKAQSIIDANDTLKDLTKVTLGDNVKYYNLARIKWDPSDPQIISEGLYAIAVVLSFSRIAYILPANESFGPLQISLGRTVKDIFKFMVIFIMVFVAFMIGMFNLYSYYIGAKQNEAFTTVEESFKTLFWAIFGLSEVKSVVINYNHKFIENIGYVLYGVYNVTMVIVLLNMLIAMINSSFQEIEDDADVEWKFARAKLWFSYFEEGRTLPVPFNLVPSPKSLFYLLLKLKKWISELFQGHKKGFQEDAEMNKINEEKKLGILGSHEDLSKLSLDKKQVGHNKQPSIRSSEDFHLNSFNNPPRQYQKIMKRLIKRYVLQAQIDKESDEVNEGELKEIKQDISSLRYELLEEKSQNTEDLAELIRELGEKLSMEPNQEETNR
Nature of the test: Evaluation of TRPC6 channel inhibitory activity (1), FLIPR Calcium 5 Assay Kit, OAG stimulation (Compound Nos. 1-1293). The test is classed as cell-based. To be noted: Human TRPC6 stably-expressing cells, OAG 30 μM, FLIPR Calcium 5 Assay Kit; read-out: Inhibitory activity (pIC50 class) (converted). The gist of the method:
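The FLIPR signal is maximum fluorescence after 30 μM OAG minus minimum before compound, measured in a human TRPC6 stable line loaded with Calcium 5 dye. Compounds were preincubated 20 min. pIC50 came from four-parameter logistic fitting of inhibition rates and is given as symbol ranges.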
In the case of `CC(=O)Nc1cc(Oc2cc(C#N)ccc2-c2ccc(CCN)cn2)n(C)n1` [compound 547, N-[5-[2-[5-(2-aminoethyl)pyridin-2-yl]-5-cyanophenoxy]-1-methylpyrazol-3-yl]acetamide], the IC50 was 0.01 to 1 µM.

Turning to `CN(C)c1cc(Oc2cc(C#N)ccc2-c2ccc(CC3(N)COC3)cn2)n(C)n1` [compound 743, 4-[5-[(3-aminooxetan-3-yl)methyl]pyridin-2-yl]-3-[5-(dimethylamino)-2-methylpyrazol-3-yl]oxybenzonitrile], the IC50 was below 0.01 µM.

Turning to `CN(C)c1cc(Oc2cc(C#N)ccc2-c2ncc(CN)cn2)n(C)n1` [compound 626, 4-[5-(aminomethyl)pyrimidin-2-yl]-3-[5-(dimethylamino)-2-methylpyrazol-3-yl]oxybenzonitrile], the IC50 was below 0.01 µM. For `N#Cc1ccc(-c2ccc(CCN)nc2)c(Oc2cc(N3CCOCC3)nc(C(F)(F)F)n2)c1` [Compound 147, 4-[6-(2-aminoethyl)pyridin-3-yl]-3-[6-morpholin-4-yl-2-(trifluoromethyl)pyrimidin-4-yl]oxybenzonitrile] the value was 0.01 to 1 µM; for `Cc1nn(CC(F)(F)F)cc1Oc1cc(C#N)ccc1-c1ncc(CN)cn1` [compound 835, 4-[5-(aminomethyl)pyrimidin-2-yl]-3-[3-methyl-1-(2,2,2-trifluoroethyl)pyrazol-4-yl]oxybenzonitrile], below 0.01 µM; for `Cc1nc(Oc2cc(C#N)ccc2-c2ncc(CCN)cn2)cc(OC2CCC2)n1` [compound 887, 4-[5-(2-aminoethyl)pyrimidin-2-yl]-3-(6-cyclobutyloxy-2-methylpyrimidin-4-yl)oxybenzonitrile], 0.01 to 1 µM.

Consider `Cc1nn(CC(C)C)cc1Cc1cc(F)ccc1-c1ncc(CN)cn1` [compound 1225, [2-[4-fluoro-2-[[3-methyl-1-(2-methylpropyl)pyrazol-4-yl]methyl]phenyl]pyrimidin-5-yl]methanamine], for which the IC50 was 0.01 to 1 µM. For `CC(C)Cn1cc(Oc2cc(F)ccc2-c2ncc(CCN)cn2)cn1` [compound 982, 2-[2-[4-fluoro-2-[1-(2-methylpropyl)pyrazol-4-yl]oxyphenyl]pyrimidin-5-yl]ethanamine] the value was 0.01 to 1 µM; for `Cc1nc(OCC2CC2(F)F)cc(Oc2cc(C#N)ccc2-c2ncc(CCN)cn2)n1` (stereo not drawn) [compound 883, 4-[5-(2-aminoethyl)pyrimidin-2-yl]-3-[6-[(2,2-difluorocyclopropyl)methoxy]-2-methylpyrimidin-4-yl]oxybenzonitrile], 0.01 to 1 µM; for `Cc1nn(CC(C)C)c(C)c1Oc1cc(C#N)ccc1-c1ncc(CCN)cn1` [compound 939, 4-[5-(2-aminoethyl)pyrimidin-2-yl]-3-[3,5-dimethyl-1-(2-methylpropyl)pyrazol-4-yl]oxybenzonitrile], 0.01 to 1 µM.

For `Cc1nc(OCC2CCCC2)cc(Oc2cc(C#N)ccc2-c2ccc(CCN)cc2)n1` [Compound 44, 4-[4-(2-aminoethyl)phenyl]-3-[6-(cyclopentylmethoxy)-2-methylpyrimidin-4-yl]oxybenzonitrile], the IC50 is above 1 µM.

For the compound `NCCc1cnc(-c2ccc(F)cc2Cc2cnn(-c3ccccn3)c2)nc1` [compound 1220, 2-[2-[4-fluoro-2-[(1-pyridin-2-ylpyrazol-4-yl)methyl]phenyl]pyrimidin-5-yl]ethanamine], the IC50 was above 1 µM. Regarding `Cn1nc(C(F)(F)F)cc1Oc1cc(C#N)ccc1-c1ncc(CCN)cn1` [compound 812, 4-[5-(2-aminoethyl)pyrimidin-2-yl]-3-[2-methyl-5-(tritluoromethyl)pyrazol-3-yl]oxybenzonitrile], the IC50 is below 0.01 µM. Next, `Cn1nc(N2CCCCC2)cc1Oc1cc(C#N)ccc1-c1ccc(CN)cn1` [compound 621, 4-[5-(aminomethyl)pyridin-2-yl]-3-(2-methyl-5-piperidin-1-ylpyrazol-3-yl)oxybenzonitrile]: below 0.01 µM; `CCCNc1cc(Oc2cc(C#N)ccc2-c2ncc(CN)cn2)nc(C)n1` [compound 632, 4-[5-(aminomethyl)pyrimidin-2-yl]-3-[2-methyl-6-(propylamino)pyrimidin-4-yl]oxybenzonitrile]: 0.01 to 1 µM; `CCN(CC(F)F)c1cc(Oc2cc(F)ccc2-c2ncc(CCN)cn2)n(C)n1` [compound 989, 5-[2-[5-(2-aminoethyl)pyrimidin-2-yl]-5-fluorophenoxy]-N-(2,2-difluoroethyl)-N-ethyl-1-methylpyrazole-3-amine]: below 0.01 µM.

On to `NCCc1ccc(-c2ccc(F)cc2Oc2cnnc(N3CCOCC3)c2)nc1` [compound 1006, 2-[6-[4-fluoro-2-(6-morpholin-4-ylpyridazin-4-yl)oxyphenyl]pyridin-3-yl]ethanamine], for which the IC50 is 0.01 to 1 µM.

For `C=C(c1cc(N2CCOCC2)nc(C)n1)c1cc(C#N)ccc1-c1ccc(CCN)cc1` [compound 1228, 4-[4-(2-aminoethyl)phenyl]-3-[1-(2-methyl-6-morpholin-4-ylpyrimidin-4-yl)ethenyl]benzonitrile], the IC50 was 0.01 to 1 µM.

For `Cc1nc(Oc2cc(C#N)ccc2-c2ncc(CN)cn2)cc(N2CCOCC2)n1` [compound 467, 4-[5-(aminomethyl)pyrimidin-2-yl]-3-(2-methyl-6-morpholin-4-ylpyrimidin-4-yl)oxybenzonitrile], the IC50 was below 0.01 µM. Next, `Cc1cc(Oc2cc(C#N)ccc2-c2ccc(C(C)(C)N)cn2)cc(N2CCOCC2)n1` [compound 397, 4-[5-(2-aminopropan-2-yl)pyridin-2-yl]-3-(2-methyl-6-morpholin-4-ylpyridin-4-yl)oxybenzonitrile]: 0.01 to 1 µM; `Cc1nc(Oc2cc(C#N)ccc2-c2ccc3c(c2)CC(N)C3O)cc(N2CCOCC2)n1` (stereo not drawn) [Compound 134, 4-(2-amino-1-hydroxy-2,3-dihydro-1H-inden-5-yl)-3-(2-methyl-6-morpholin-4-ylpyrimidin-4-yl)oxybenzonitrile]: 0.01 to 1 µM. Regarding `Cc1nc(Oc2cc(C#N)ccc2-c2ccc([C@H](O)CN)cn2)cc(N2CCOC(C)(C)C2)n1` [compound 560, 4-[5-[(1S)-2-amino-1-hydroxyethyl]pyridin-2-yl]-3-[6-(2,2-dimethylmorpholin-4-yl)-2-methylpyrimidin-4-yl]oxybenzonitrile], the IC50 is 0.01 to 1 µM. Next, `Cn1nccc1Oc1cc(C#N)ccc1-c1ccc(CCN)cn1` [compound 300, 4-[5-(2-aminoethyl)pyridin-2-yl]-3-(2-methylpyrazol-3-yl)oxybenzonitrile]: 0.01 to 1 µM; `Cn1nc(-c2ccccc2)cc1Oc1cc(C#N)ccc1-n1cc(C(O)CN)cn1` (stereo not drawn) [Compound 204, 4-[4-(2-amino-1-hydroxyethyl)pyrazol-1-yl]-3-(2-methyl-5-phenylpyrazol-3-yl)oxybenzonitrile]: below 0.01 µM; `Cc1nc(Oc2cc(C#N)ccc2-c2ccc([C@H](O)CN)cn2)cc(-c2nccs2)n1` [compound 603, 4-[5-[(1S)-2-amino-1-hydroxyethyl]pyridin-2-yl]-3-[2-methyl-6-(1,3-thiazol-2-yl)pyrimidin-4-yl]oxybenzonitrile]: 0.01 to 1 µM. With `N#Cc1ccc(-c2ncc(CN)cn2)c(Oc2cncc(N3CCOCC3)c2)c1` [compound 918, 4-[5-(aminomethyl)pyrimidin-2-yl]-3-(5-morpholin-4-ylpyridin-3-yl)oxybenzonitrile], the IC50 is above 1 µM. Next, `Cn1nc(C2CC2)cc1Oc1cc(C#N)ccc1-c1ccc(C(O)C(C)(C)N)cn1` (stereo not drawn) [compound 335, 4-[5-(2-amino-1-hydroxy-2-methylpropyl)pyridin-2-yl]-3-(5-cyclopropyl-2-methylpyrazol-3-yl)oxybenzonitrile]: below 0.01 µM; `Cc1nc(Oc2cc(C#N)ccc2-c2ccc(C(O)CN(C)C)cc2)cc(N2CCOCC2)n1` (stereo not drawn) [Compound 106, 4-[4-[2-(dimethylamino)-1-hydroxyethyl]phenyl]-3-(2-methyl-6-morpholin-4-ylpyrimidin-4-yl)oxybenzonitrile]: above 1 µM; `Cc1nc(Oc2cc(C#N)ccc2-n2cc(CC(N)C(=O)O)c3ccccc32)cc(-c2ccccc2)n1` (stereo not drawn) [compound 449, 2-amino-3-[1-[4-cyano-2-(2-methyl-6-phenylpyrimidin-4-yl)oxyphenyl]indol-3-yl]propanoic acid]: above 1 µM. `CC(C)NC(=O)c1cn(Cc2cc(C#N)ccc2-c2ccc(CCN)cc2)cn1` [compound 1113, 1-[[2-[4-(2-aminoethyl)phenyl]-5-cyanophenyl]methyl]-N-propan-2-ylimidazole-4-carboxamide]: the IC50 was above 1 µM.
